Results published in patent US20040242693A1, “Optically active mandelic acid and its derivative, and method for crystallization thereof” (priority 2001, published 2004).

Columns and labels:
Format in all cases: physicochemical
[1] = Flowability (flow limit diameter through glass funnels); settings: minimum funnel inside diameter without blockage in 5 tests, 15 g crystals
Method: Glass funnels obtained by connecting glass tubes (cylindrical portions) having inside diameters of 4, 5, 6, 8, 9 and 11 mm with the edges of cones with apical angles of 60° were used. The outlet of each funnel (outlet of cylindrical portion) was closed. […] During this process, the funnel should not be shaken, and chloromandelic acid crystals should not be pushed into the funnel by compression. Thereafter, each funnel containing chloromandelic acid crystals was left at rest, the outlet of the cylindrical portion of each funnel was opened, and the crystals were naturally dropped from the outlets. This operation was carried out 5 times, using each of the above described funnels having cylindrical portions with inside diameters of 4, 5, 6, 8, 9 and 11 mm. Flow limit diameter (mm) was defined as a minimum inside diameter capable of naturally dropping the total amount of chloromandelic acid crystals in all of the above 5 tests with no blockage in the funnels. The flow limit diameter was defined as an index of fluidity.

[2] = Measurement of filling (packing) density; settings: natural drop into 50 ml measuring cylinder
Method: Measurement of Filling (Packing) Density
10 to 20 g of each of the crystals obtained in the above Examples and Comparative examples was weighed, and it was passed through a funnel with a diameter of 20 mm to naturally drop into a 50 ml measuring cylinder, so that the weight and volume of the crystals were measured and the filling density was calculated.

[3] = Adhesiveness (crystals adhering to test tube wall); settings: weight of adhering crystals / weight filled, test tube 16 mm
Method: Chloromandelic acid crystals were naturally dropped in a dry test tube having an inside diameter of 16 mm, so that the height of the crystals became approximately 10 cm. Thereafter, the test tube containing chloromandelic acid crystals was slowly inverted, so that the test tube was completely turned upside down and the crystals were dropped. Thereafter, the weight of the test tube was measured, and the weight of chloromandelic acid crystals adhered to the inner wall of the test tube was obtained. The ratio (%) of the weight of the adhering crystals to the weight of the initially filled chloromandelic acid crystals was defined as an index of adhesiveness.

Appearance of crystals = settings: dried crystals
Method: Subsequently, the (R)-2-chloromandelic acid crystals obtained in Examples 1 to 6 and Comparative examples 1 and 2 were measured regarding appearance, water content, filling density, compression rate, and particle size distribution. Each of the above items was measured according to the following methods.

[4] = Measurement of water content (Karl Fischer method); settings: for Water content: dried crystals, Karl Fischer
Method: Measurement of Water Content
Water content was measured by the Karl Fischer method.

[5] = Measurement of particle size distribution (sieving); settings: for Particle size distribution 300 to 1,000 μm: sieve fraction 300 to 1,000 μm; for Particle size distribution <300 μm: sieve fraction <300 μm; for Particle size distribution 1,000 μm<: sieve fraction above 1,000 μm
Method: Measurement of Particle Size Distribution
The crystals were shifted using a microtype electromagnetic vibrating shifter (M-2 type, manufactured by Tsutsui Rikagaku Kikai Co., Ltd.), and their weight was measured, so that their particle size distribution was obtained. 20 g of the crystals was placed on a sieve with a mesh of 1,000 μm, and another sieve with a mesh of 300 μm was placed below the above sieve followed by vibration for 10 minutes.

[6] = Measurement of compression rate; settings: (volume 1−volume 2)/volume 1
Method: Measurement of Compression Rate
An approximately 7-cm^3 chloromandelic acid crystal was passed through a funnel with a diameter of 9 mm, and it was naturally dropped into a 10 ml measuring cylinder from a height of 20 cm, so that the volume of the crystals was measured (volume 1). Thereafter, the crystals in the measuring cylinder were compressed with a glass rod until their volume was not reduced, and the volume after the compression was measured (volume 2). Compression rate was calculated according to the following formula.
Compression rate=(volume 1−volume 2)/volume 1

| SMILES | Flow limit diameter [1] [mm] | Filling density [2] [g/mL] | Adhesion rate [3] [%] | Appearance (Appearance of crystals) | Water content [4] [wt %] | Particle size distribution 300 to 1,000 μm [5] [weight %] | Particle size distribution <300 μm [5] [weight %] | Particle size distribution 1,000 μm< [5] [weight %] | Compression rate [6] | Water content of crystal wet product ([4]; wet product after filtration and washing, before drying) [% by weight] |
| --- | --- | --- | --- | --- | --- | --- | --- | --- | --- | --- |
| O=C(O)[C@H](O)c1ccccc1Cl [Example 1, (R)-2-chloromandelic acid] | 5 | 0.65 | 0.057 | Granular | 0.046 | 73.5 | 15.5 | 11.0 | 0.03 |  |
| O=C(O)[C@H](O)c1ccccc1Cl [Example 2, (R)-2-chloromandelic acid] | 5 | 0.63 | 0.061 | Granular | 0.049 | 73.2 | 18.2 | 8.0 | 0.03 |  |
| O=C(O)[C@H](O)c1ccccc1Cl [Example 3, (R)-2-chloromandelic acid] | 5 | 0.63 | 0.058 | Granular | 0.058 | 71.0 | 16.6 | 12.4 | 0.03 |  |
| O=C(O)[C@H](O)c1ccccc1Cl [Example 4, (R)-2-chloromandelic acid] | 5 | 0.68 | 0.110 | Granular | 0.062 | 72.2 | 17.3 | 10.5 | 0.03 | 10 |

Results, then the compound that gave them:

| Flow limit diameter [1] [mm] | Filling density [2] [g/mL] | Adhesion rate [3] [%] | Appearance (Appearance of crystals) | Water content [4] [wt %] | Particle size distribution 300 to 1,000 μm [5] [weight %] | Particle size distribution <300 μm [5] [weight %] | Particle size distribution 1,000 μm< [5] [weight %] | Compression rate [6] | Water content of crystal wet product ([4]; wet product after filtration and washing, before drying) [% by weight] | SMILES |
| --- | --- | --- | --- | --- | --- | --- | --- | --- | --- | --- |
| 5 | 0.68 | 0.130 | Granular | 0.076 | 73.1 | 18.4 | 8.5 | 0.03 |  | O=C(O)[C@H](O)c1ccccc1Cl [Example 5, (R)-2-chloromandelic acid] |
| 5 | 0.64 | 0.140 | Granular | 0.080 | 71.3 | 19.0 | 9.7 | 0.03 |  | O=C(O)[C@H](O)c1ccccc1Cl [Example 6, (R)-2-chloromandelic acid] |
| 9 | 0.68 | 0.830 | Fine | 0.110 | 46.5 | 46.2 | 7.3 | 0.04 |  | O=C(O)[C@H](O)c1ccccc1Cl [compound 1, (R)-2-chloromandelic acid, reference compound] |
| 11 | 0.29 | 0.500 | Scale | 0.005 | 71.3 | 24.6 | 4.1 | 0.62 |  | O=C(O)[C@H](O)c1ccccc1Cl [compound 2, (R)-2-chloromandelic acid, reference compound] |
